SMILES	melting point
O=C(Nc1cccc(-n2c(=O)c(Cc3cccnc3)nc3cccnc32)c1)Oc1ccccc1	227 to 232 °C
COc1ccccc1NC(=O)Nc1cccc(-n2c(=O)c(CCC(=O)O)nc3cccnc32)c1 [Example 16(12), 2-(2-Carboxyethyl)-3-oxo-4-[3-[3-(2-methoxyphenyl)-ureido]phenyl]-3,4-dihydropyrido[2,3-b]pyrazine]	143 to 153 °C (dec.)
COc1ccccc1NC(=O)Nc1cccc(-n2c(=O)c(Cc3ccc(O)cc3)nc3cccnc32)c1 [Example 16(13), 2-(4-Hydroxyphenylmethyl)-3-oxo-4-[3-[3-(2-methoxyphenyl)ureido]phenyl]-3,4-dihydropyrido-[2,3-b]pyrazine]	220 to 221 °C
COc1ccccc1NC(=O)Nc1cccc(-n2c(=O)c(Cc3ccccc3[N+](=O)[O-])nc3cccnc32)c1 [Example 16(14), 2-(2-Nitrophenylmethyl)-3-oxo-4-[3-[3-(2-methoxyphenyl)ureido]phenyl]-3,4-dihydropyrido[2,3-b]pyrazine]	200 to 208 °C (dec.)
CC(=O)Nc1cccc(-n2c(=O)c(CCC(=O)O)nc3cccnc32)c1 [Example 16(15), 4-(3-Acetamidophenyl)-2-(2-carboxyethyl)-3-oxo-3,4-dihydropyrido[2,3-b]pyrazine]	264 to 269 °C (dec.)
CCOc1ccc2nc(Cc3ccccc3)c(=O)n(-c3cccc(NC(C)=O)c3)c2n1 [Example 16(16), 4-(3-Acetamidophenyl)-2-benzyl-6-ethoxy-3-oxo-3,4-dihydropyrido[2,3-b]pyrazine]	212 to 214 °C
COc1ccccc1NC(=O)Nc1cccc(-n2c(=O)c(CCC(=O)ON3C(=O)CCC3=O)nc3cccnc32)c1 [Example 23, 4-[3-[3-(2-methoxyphenyl)ureido]-phenyl]-3-oxo-2-[2-succinimidooxycarbonylethyl)-3,4-dihydropyrido[2,3-b]pyrazine]	235 to 237 °C
COc1ccccc1NC(=O)Nc1cccc(-n2c(=O)c(CCC(=O)N(C)C)nc3cccnc32)c1 [Example 24, 2-[2-(N,N-dimethylcarbamoyl)ethyl]-3-oxo-4-[3-[3-(2-methoxyphenyl)-ureido]phenyl]-3,4-dihydropyrido[2,3-b]pyrazine]	242 to 245 °C
CCOC(=O)CCc1nc2cccnc2n(-c2cccc(NC(=O)Nc3ccccc3OC)c2)c1=O [Example 33, 2-(2-ethoxycarbonylethyl)-3-oxo-4-[3-[3-(2-methoxyphenyl)-ureido]phenyl]-3,4-dihydropyrido[2,3-b]pyrazine]	175 °C
CCCOC(=O)CCc1nc2cccnc2n(-c2cccc(NC(=O)Nc3ccccc3OC)c2)c1=O [Example 34(1), 4-[3-[3-(2-Methoxyphenyl)ureido]phenyl]-3-oxo-2-(2-propyloxycarbonylethyl)-3,4-dihydropyrido[2,3-b]-pyrazine]	161 to 163 °C
COC(=O)CCc1nc2cccnc2n(-c2cccc(NC(=O)Nc3ccccc3OC)c2)c1=O [Example 34(2), 2-(2-Methoxycarbonylethyl)-3-oxo-4-[3-[3-(2-methoxyphenyl)ureido]phenyl]-3,4-dihydropyrido-[2,3-b]pyrazine]	194 to 196 °C
COc1ccccc1NC(=O)Nc1cccc(-n2c(=O)c(CCC(=O)N3CCN(C)CC3)nc3cccnc32)c1 [Example 35, 4-[3-[3-(2-methoxyphenyl)ureido]phenyl]-2-[2-(4-methylpiperazin-1-yl)carbonylethyl]-3-oxo-3,4-dihydropyrido[2,3-b]pyrazine]	195 to 197 °C
COC(=O)[C@@H]1CCCN1C(=O)CCc1nc2cccnc2n(-c2cccc(NC(=O)Nc3ccccc3OC)c2)c1=O [Example 36, 4-[3-[3-(2-Methoxyphenyl)ureido]phenyl]-3-oxo-2-[2[(2S)-2-methoxycarbonylpyrrolidin-1-yl]carbonylethyl]-3,4-dihydropyrido[2,3-b]pyrazine]	209 to 212 °C
O=C(Nc1ccc(F)c(-n2c(=O)c(Cc3cccnc3)nc3cccnc32)c1)c1ccc2ccccc2c1 [Example 41(20), 4-[2-Fluoro-5-(2-naphthoylamino)phenyl]-2-(3-pyridylmethyl)-3-oxo-3,4-dihydropyrido[2,3-b]pyrazine]	264 to 268 °C
O=c1c(Cc2cccnc2)nc2cccnc2n1-c1cccc(-c2ccc3ccccc3c2)c1 [Example 43, 4-[3-(2-naphthyl)phenyl]-2-(3-pyridylmethyl)-3-oxo-3,4-dihydropyrido[2,3-b]pyrazine]	155 to 156 °C
COc1ccccc1NC(=O)Nc1cccc(-n2c(=O)c(Cc3ccccc3)nc3cccnc32)c1 [Example 45(6), 2-Benzyl-4-[3-[3-(2-methoxyphenyl)ureido]phenyl]-3-oxo-3,4-dihydropyrido[2,3-b]pyrazine]	238 to 239 °C
N#Cc1cccn1-c1cccc(-n2c(=O)c(Cc3ccccc3)nc3cccnc32)c1 [Example 45(7), 2-Benzyl-4-[3-(2-cyanopyrrol-1-yl)phenyl]-3-oxo-3,4-dihydropyrido[2,3-b]pyrazine]	165 to 166 °C
O=c1c(Cc2ccccc2)nc2cccnc2n1-c1cccc(-c2nc3ccccc3s2)c1 [Example 45(8), 2-Benzyl-4-[3-(benzothiazol-2-yl)phenyl]-3-oxo-3,4-dihydropyrido[2,3-b]pyrazine]	197 to 198 °C
O=C(c1ccccc1)c1cccc(-n2c(=O)c(Cc3ccccc3)nc3cccnc32)c1 [Example 45(9), 2-Benzyl-4-(3-benzoylphenyl)-3-oxo-3,4-dihydropyrido[2,3-b]pyrazine]	154 to 155 °C
O=c1c(Cc2ccccc2)nc2cccnc2n1-c1cccc(C(F)(F)F)c1 [Example 45(10), 2-Benzyl-4-(3-trifluoromethylphenyl)-3-oxo-3,4-dihydropyrido[2,3-b]pyrazine]	125 to 127 °C
CC(=O)c1cn(-c2cccc(-n3c(=O)c(Cc4ccccc4)nc4cccnc43)c2)c2ccccc12 [Example 45(11), 2-Benzyl-4-[3-(3-acetylindol-1-yl)phenyl]-3-oxo-3,4-dihydropyrido[2,3-b]pyrazine]	157 to 159 °C
COC(=O)c1cccc(-n2c(=O)c(Cc3cccnc3)nc3cccnc32)c1 [Example 45(12), 4-(3-Methoxycarbonylphenyl)-2-(3-pyridylmethyl)-3-oxo-3,4-dihydropyrido[2,3-b]pyrazine]	208 to 210 °C
O=c1c(Cc2cccnc2)nc2cccnc2n1-c1cccc(-n2cccc2)c1 [Example 45(13), 4-[3-(1-Pyrrolyl)phenyl]-2-(3-pyridylmethyl)-3-oxo-3,4-dihydropyrido[2,3-b]pyrazine]	128 to 130 °C
O=c1c(Cc2cccnc2)nc2cccnc2n1-c1cccc(C(F)(F)F)c1 [Example 45(14), 4-(3-Trifluoromethylphenyl)-2-(3-pyridylmethyl)-3-oxo-3,4-dihydropyrido[2,3-b]pyrazine]	88 to 90 °C
CC(=O)Nc1ccc(F)c(-n2c(=O)c(Cc3cccnc3)nc3cccnc32)c1 [Example 45(15), 4-(5-Acetamido-2-fluorophenyl)-2-(3-pyridylmethyl)-3-oxo-3,4-dihydropyrido[2,3-b]pyrazine]	212 to 214 °C
O=C(c1ccccc1)c1cccc(-n2c(=O)c(Cc3cccnc3)nc3cccnc32)c1 [Example 45(16), 4-(3-Benzoylphenyl)-2-(3-pyridylmethyl)-3-oxo-3,4-dihydropyrido[2,3-b]pyrazine]	142 to 143 °C

From patent US6727245B2, “Heterobicyclic derivatives” (Fujisawa Pharmaceutical Co., Ltd., priority 1994, dated 2004)
